Results as given in ChEMBL document CHEMBL1201862, “PubChem BioAssay data set” (2004).
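Test compounds were applied to cells in 96-well plates for 48 hours at 5 doses. GI50: concentration for 50% inhibition of growth.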 Active and inactive are the calls of the source. No stated cut-off is given here; in the data, active = GI50 up to about 1.1 µM and inactive = higher.

Columns and labels:
Assay in all cases: inhibition of tumour cell growth, NCI panel, 48 h
KM-20L2 = tested on: KM-20L2
U-251 = tested on: U-251
M19-MEL = tested on: M19-MEL
DMS-114 = tested on: DMS-114
NCI/ADR-RES = tested on: NCI/ADR-RES
UACC-257 = tested on: UACC-257
PC-3 = tested on: PC-3
EKVX = tested on: EKVX
MOLT-4 = tested on: MOLT-4
T47D = tested on: T47D
HOP-92 = tested on: HOP-92
BT-549 = tested on: BT-549
A498 = tested on: A498
SK-OV-3 = tested on: SK-OV-3
HCT-15 = tested on: HCT-15
Hs-578T = tested on: Hs-578T
COLO 205 = tested on: COLO 205
HT-29 = tested on: HT-29
NCI-H522 = tested on: NCI-H522
SK-MEL-28 = tested on: SK-MEL-28
Malme-3M = tested on: Malme-3M
MCF7 = tested on: MCF7
SF-268 = tested on: SF-268
IGROV-1 = tested on: IGROV-1
UACC-62 = tested on: UACC-62
TK-10 = tested on: TK-10
SR = tested on: SR
NCI-H460 = tested on: NCI-H460
RPMI-8226 = tested on: RPMI-8226
K562 = tested on: K562
HCC 2998 = tested on: HCC 2998
OVCAR-3 = tested on: OVCAR-3
LOX IMVI = tested on: LOX IMVI
HL-60 = tested on: HL-60
SK-MEL-2 = tested on: SK-MEL-2
LXFL 529 = tested on: LXFL 529
CAKI-1 = tested on: CAKI-1
SW-620 = tested on: SW-620
HCT-116 = tested on: HCT-116
CCRF-CEM = tested on: CCRF-CEM
ACHN = tested on: ACHN
RXF 631 = tested on: RXF 631
SN12C = tested on: SN12C
MDA-MB-435 = tested on: MDA-MB-435
DMS-273 = tested on: DMS-273
OVCAR-5 = tested on: OVCAR-5
NCI-H23 = tested on: NCI-H23
SNB-78 = tested on: SNB-78
HOP-62 = tested on: HOP-62
SNB-75 = tested on: SNB-75
OVCAR-4 = tested on: OVCAR-4
MDA-MB-231 = tested on: MDA-MB-231
RXF 393 = tested on: RXF 393
SNB-19 = tested on: SNB-19
M14 = tested on: M14
KM12 = tested on: KM12
SF-539 = tested on: SF-539
SF-295 = tested on: SF-295
NCI-H226 = tested on: NCI-H226
DU-145 = tested on: DU-145
A549 = tested on: A549
OVCAR-8 = tested on: OVCAR-8
XF498 = tested on: XF498
SK-MEL-5 = tested on: SK-MEL-5
MDA-N = tested on: MDA-N
UO-31 = tested on: UO-31
786-0 = tested on: 786-0
DLD-1 = tested on: DLD-1
HOP-18 = tested on: HOP-18

Structure (SMILES): O=C(CC(=O)c1ccccc1NC1=Cc2ccccc2C(=O)C1=O)C(=O)NC1=C(Cl)C(=O)c2ccccc2C1=O
- GI50 (KM-20L2): 9.77 µM (inactive)
- GI50 (U-251): 3.04 µM (inactive)
- GI50 (M19-MEL): 0.225 µM (active)
- GI50 (DMS-114): 1.68 µM (inactive)
- GI50 (NCI/ADR-RES): 3 µM (inactive)
- GI50 (UACC-257): 2.04 µM (inactive)
- GI50 (PC-3): 2.23 µM (inactive)
- GI50 (EKVX): 7.98 µM (inactive)
- GI50 (MOLT-4): 1.24 µM (inactive)
- GI50 (T47D): 10.9 µM (inactive)
- GI50 (HOP-92): 4.51 µM (inactive)
- GI50 (BT-549): 3.76 µM (inactive)
- GI50 (A498): 14.7 µM (inactive)
- GI50 (SK-OV-3): 23.3 µM (inactive)
- GI50 (HCT-15): 1.67 µM
- GI50 (Hs-578T): 1.9 µM (inactive)
- GI50 (COLO 205): 14.8 µM (inactive)
- GI50 (HT-29): 5.26 µM (inactive)
- GI50 (NCI-H522): 1.91 µM (inactive)
- GI50 (SK-MEL-28): 1.89 µM (inactive)
- GI50 (Malme-3M): 1.22 µM (inactive)
- GI50 (MCF7): 0.804 µM (active)
- GI50 (SF-268): 2.93 µM (inactive)
- GI50 (IGROV-1): 5.79 µM (inactive)
- GI50 (UACC-62): 1.85 µM (inactive)
- GI50 (TK-10): 22.3 µM (inactive)
- GI50 (SR): 1.44 µM (inactive)
- GI50 (NCI-H460): 3.04 µM (inactive)
- GI50 (RPMI-8226): 1.56 µM (inactive)
- GI50 (K562): 1.29 µM (inactive)
- GI50 (HCC 2998): 9.84 µM (inactive)
- GI50 (OVCAR-3): 1.51 µM (inactive)
- GI50 (LOX IMVI): 1.13 µM (inactive)
- GI50 (HL-60): 0.605 µM (active)
- GI50 (SK-MEL-2): 2.47 µM (inactive)
- GI50 (LXFL 529): 2.46 µM (inactive)
- GI50 (CAKI-1): 8.28 µM (inactive)
- GI50 (SW-620): 2.43 µM (inactive)
- GI50 (HCT-116): 2.31 µM (inactive)
- GI50 (CCRF-CEM): 2.03 µM (inactive)
- GI50 (ACHN): 3.56 µM (inactive)
- GI50 (RXF 631): 4.37 µM (inactive)
- GI50 (SN12C): 1.8 µM (inactive)
- GI50 (MDA-MB-435): 1.85 µM (inactive)
- GI50 (DMS-273): 2.34 µM (inactive)
- GI50 (OVCAR-5): 5.98 µM (inactive)
- GI50 (NCI-H23): 1.57 µM (inactive)
- GI50 (SNB-78): 2.16 µM (inactive)
- GI50 (HOP-62): 4.79 µM (inactive)
- GI50 (SNB-75): 1.69 µM (inactive)
- GI50 (OVCAR-4): 3.36 µM (inactive)
- GI50 (MDA-MB-231): 2.42 µM (inactive)
- GI50 (RXF 393): 2.34 µM (inactive)
- GI50 (SNB-19): 5.56 µM (inactive)
- GI50 (M14): 1.47 µM (inactive)
- GI50 (KM12): 4.28 µM (inactive)
- GI50 (SF-539): 4.31 µM (inactive)
- GI50 (SF-295): 3.87 µM (inactive)
- GI50 (NCI-H226): 7.52 µM (inactive)
- GI50 (DU-145): 5.71 µM (inactive)
- GI50 (A549): 4.55 µM (inactive)
- GI50 (OVCAR-8): 3.12 µM (inactive)
- GI50 (XF498): 2.49 µM (inactive)
- GI50 (SK-MEL-5): 0.752 µM (active)
- GI50 (MDA-N): 1.75 µM (inactive)
- GI50 (UO-31): 6.89 µM (inactive)
- GI50 (786-0): 2.48 µM (inactive)
- GI50 (DLD-1): 2.38 µM (inactive)

Structure (SMILES): Cc1cc(N(CCC#N)CCC#N)ccc1/C=C(\NC(=O)/C=C/c1ccccc1)C(=O)Nc1ccc(Cl)cc1
- GI50 (U-251): > 7.53 µM (inactive)
- GI50 (M19-MEL): 0.944 µM (active)
- GI50 (DMS-114): 1.62 µM (inactive)
- GI50 (NCI/ADR-RES): > 100 µM (inactive)
- GI50 (UACC-257): > 46 µM (inactive)
- GI50 (PC-3): 0.586 µM (active)
- GI50 (EKVX): > 80.2 µM (inactive)
- GI50 (MOLT-4): 38.1 µM (inactive)
- GI50 (T47D): > 100 µM (inactive)
- GI50 (HOP-92): > 100 µM (inactive)
- GI50 (BT-549): > 100 µM (inactive)
- GI50 (A498): > 100 µM (inactive)
- GI50 (SK-OV-3): > 100 µM (inactive)
- GI50 (HCT-15): 11.7 µM
- GI50 (Hs-578T): > 100 µM (inactive)
- GI50 (COLO 205): 1.07 µM (active)
- GI50 (HT-29): > 14.3 µM (inactive)
- GI50 (NCI-H522): > 26.2 µM (inactive)
- GI50 (SK-MEL-28): > 100 µM (inactive)
- GI50 (Malme-3M): 14.2 µM (inactive)
- GI50 (MCF7): 27 µM (inactive)
- GI50 (SF-268): > 100 µM (inactive)
- GI50 (IGROV-1): 7.62 µM (inactive)
- GI50 (UACC-62): 0.577 µM (active)
- GI50 (TK-10): > 100 µM (inactive)
- GI50 (NCI-H460): 52.4 µM (inactive)
- GI50 (RPMI-8226): 10 µM (inactive)
- GI50 (K562): 0.364 µM (active)
- GI50 (HCC 2998): 4.33 µM (inactive)
- GI50 (OVCAR-3): 50.8 µM (inactive)
- GI50 (LOX IMVI): 1.14 µM (inactive)
- GI50 (HL-60): 5.6 µM (inactive)
- GI50 (SK-MEL-2): > 59.6 µM (inactive)
- GI50 (LXFL 529): 0.0991 µM (active)
- GI50 (CAKI-1): > 28.3 µM (inactive)
- GI50 (SW-620): 12.3 µM (inactive)
- GI50 (HOP-18): > 100 µM (inactive)
- GI50 (HCT-116): 5.41 µM (inactive)
- GI50 (CCRF-CEM): 2.44 µM (inactive)
- GI50 (ACHN): 1.83 µM (inactive)
- GI50 (RXF 631): > 100 µM (inactive)
- GI50 (SN12C): > 75.7 µM (inactive)
- GI50 (MDA-MB-435): 1.94 µM (inactive)
- GI50 (DMS-273): 0.982 µM (active)
- GI50 (OVCAR-5): 54.6 µM (inactive)
- GI50 (NCI-H23): > 63.1 µM (inactive)
- GI50 (SNB-78): > 100 µM (inactive)
- GI50 (SNB-75): > 52.4 µM (inactive)
- GI50 (OVCAR-4): 30.5 µM (inactive)
- GI50 (MDA-MB-231): > 100 µM (inactive)
- GI50 (RXF 393): > 68.9 µM (inactive)
- GI50 (SNB-19): > 100 µM (inactive)
- GI50 (M14): 9.16 µM (inactive)
- GI50 (KM12): 3.74 µM (inactive)
- GI50 (SF-539): 6.81 µM (inactive)
- GI50 (SF-295): 4.86 µM (inactive)
- GI50 (NCI-H226): > 69 µM (inactive)
- GI50 (DU-145): > 100 µM (inactive)
- GI50 (A549): > 36.5 µM (inactive)
- GI50 (OVCAR-8): > 100 µM (inactive)
- GI50 (XF498): > 100 µM (inactive)
- GI50 (SK-MEL-5): 0.179 µM (active)
- GI50 (MDA-N): 5.01 µM (inactive)
- GI50 (UO-31): 11 µM (inactive)
- GI50 (786-0): > 100 µM (inactive)
- GI50 (DLD-1): 5.58 µM (inactive)
